From the supplement of paper PMC11061612

Assays:
Assay in all cases: combination Emax (second highest fraction inhibited in the dose matrix, 72 h); higher = more inhibition; extreme values may be limits of the assay
A498 (Kidney Carcinoma) = system: A498 (Kidney Carcinoma)
How it was run: (§1)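 Cell lines grown in DMEM/F12 or RPMI with 10% FBS were plated in 1536-well plates and held 24 hours at 37°C, 5% CO2 before 72 hours of exposure to two-drug dose matrices, with DMSO typically at 0.2%. CellTiter-Glo 2.0 luminescence gave viability, which was converted to inhibition. Vehicle wells were set to 0 and blank wells to 1. Combination Emax is the second-highest inhibition in the matrix, and Bliss excess is the observed combination effect minus the expected EA + EB − EA·EB, where EA and EB are the single-agent effects.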

ARH-77 (Non-Cancerous) = system: ARH-77 (Non-Cancerous)
How it was run: as §1

[1] = system: BICR22 (Oral Cavity Carcinoma)
How it was run: as §1

CAS-1 (Glioblastoma) = system: CAS-1 (Glioblastoma)
How it was run: as §1

[2] = system: COLO-320-HSR (Colorectal Carcinoma)
How it was run: as §1

[3] = system: COR-L311 (Small Cell Lung Carcinoma)
How it was run: as §1

[4] = system: ECC10 (Gastric Carcinoma)
How it was run: as §1

Hs-445 (Non-Cancerous) = system: Hs-445 (Non-Cancerous)
How it was run: as §1

IGR-37 (Melanoma) = system: IGR-37 (Melanoma)
How it was run: as §1

LN-405 (Glioblastoma) = system: LN-405 (Glioblastoma)
How it was run: as §1

[5] = system: NCI-H1666 (Lung Adenocarcinoma)
How it was run: as §1

[6] = system: NCI-H1693 (Lung Adenocarcinoma)
How it was run: as §1

[7] = system: NCI-H2141 (Small Cell Lung Carcinoma)
How it was run: as §1

NY (Osteosarcoma) = system: NY (Osteosarcoma)
How it was run: as §1

[8] = system: OS-RC-2 (Kidney Carcinoma)
How it was run: as §1

[9] = system: PANC-10-05 (Pancreatic Carcinoma)
How it was run: as §1

[10] = system: SISO (Cervical Carcinoma)
How it was run: as §1

[11] = system: SK-MES-1 (Squamous Cell Lung Carcinoma)
How it was run: as §1

[12] = system: SK-MG-1 (Low Grade Glioma)
How it was run: as §1

U-2-OS (Osteosarcoma) = system: U-2-OS (Osteosarcoma)
How it was run: as §1

SMILES | combination Emax (A498 (Kidney Carcinoma)) | combination Emax (ARH-77 (Non-Cancerous)) | combination Emax [1] | combination Emax (CAS-1 (Glioblastoma)) | combination Emax [2] | combination Emax [3] | combination Emax [4] | combination Emax (Hs-445 (Non-Cancerous)) | combination Emax (IGR-37 (Melanoma)) | combination Emax (LN-405 (Glioblastoma)) | combination Emax [5] | combination Emax [6] | combination Emax [7] | combination Emax (NY (Osteosarcoma)) | combination Emax [8] | combination Emax [9] | combination Emax [10] | combination Emax [11] | combination Emax [12] | combination Emax (U-2-OS (Osteosarcoma))
CCN(CCO)CCCOc1ccc2c(Nc3cc(CC(=O)Nc4cccc(F)c4)[nH]n3)ncnc2c1 [AZD2811] + C=CCn1c(=O)c2cnc(Nc3ccc(N4CCN(C)CC4)cc3)nc2n1-c1cccc(C(C)(C)O)n1 [AZD1775] (first compound max 1 µM, partner max 1 µM) | 0.458 | 0.95 | 0.468 | 0.496 | 0.631 | 0.592 | 0.898 | 0.882 | 0.737 | 0.199 | 0.327 | 0.225 | 0.502 | 0.527 | 0.305 | 0.354 | 0.568 | 0.537 | 0.455 | 0.628
CCN(CCO)CCCOc1ccc2c(Nc3cc(CC(=O)Nc4cccc(F)c4)[nH]n3)ncnc2c1 [AZD2811] + C[C@@H]1COCCN1C2=NC(=NC(=C2)C3(CC3)[S@](=N)(=O)C)C4=C5C=CNC5=NC=C4 [AZD6738] (first compound max 1 µM, 7x7, partner max 10 µM) | 0.647 | 0.941 | 0.729 | 0.544 | 0.599 | 0.577 | 0.876 | 0.832 | 0.711 | 0.46 | 0.28 | 0.232 | 0.502 | 0.619 | 0.429 | 0.389 | 0.551 | 0.668 | 0.515 | 0.642
CCN(CCO)CCCOc1ccc2c(Nc3cc(CC(=O)Nc4cccc(F)c4)[nH]n3)ncnc2c1 [AZD2811] + O=C(c1cc(Cc2n[nH]c(=O)c3ccccc23)ccc1F)N1CCN(C(=O)C2CC2)CC1 [Olaparib] (first compound max 1 µM, 7x7, partner max 10 µM) | 0.241 | 0.474 | 0.362 | 0.255 | 0.0695 | 0.673 | 0.835 | 0.426 | 0.0609 | 0.192 | 0.284 | 0.236 | 0.307 | 0.169 | 0.178 | 0.181 | 0.454 | 0.271 | 0.405 | 0.219
CN(CCO)CC[C@H](CSc1ccccc1)Nc1ccc(S(=O)(=O)NC(=O)c2ccc(N3CCC([C@@H](O)c4ccccc4-c4ccc(Cl)cc4)CC3)cc2)cc1S(=O)(=O)C(F)(F)F [AZD4320] + C=CCn1c(=O)c2cnc(Nc3ccc(N4CCN(C)CC4)cc3)nc2n1-c1cccc(C(C)(C)O)n1 [AZD1775] (first compound max 1 µM, partner max 1 µM) | 0.628 | 1 | 0.882 | 0.713 | 0.632 | 1 | 1 | 1 | 0.762 | 0.379 | 0.302 | 0.355 | 1 | 0.793 | 0.337 | 0.481 | 0.549 | 0.797 | 0.91 | 0.782
CN(CCO)CC[C@H](CSc1ccccc1)Nc1ccc(S(=O)(=O)NC(=O)c2ccc(N3CCC([C@@H](O)c4ccccc4-c4ccc(Cl)cc4)CC3)cc2)cc1S(=O)(=O)C(F)(F)F [AZD4320] + CCN(CCO)CCCOc1ccc2c(Nc3cc(CC(=O)Nc4cccc(F)c4)[nH]n3)ncnc2c1 [AZD2811] (first compound max 1 µM, 7x7, partner max 1 µM) | 0.218 | 0.95 | 0.828 | 0.417 | 0.0615 | 1 | 1 | 0.926 | 0.116 | 0.363 | 0.154 | 0.221 | 0.896 | 0.121 | 0.159 | 0.18 | 0.401 | 0.342 | 0.731 | 0.389
CN(CCO)CC[C@H](CSc1ccccc1)Nc1ccc(S(=O)(=O)NC(=O)c2ccc(N3CCC([C@@H](O)c4ccccc4-c4ccc(Cl)cc4)CC3)cc2)cc1S(=O)(=O)C(F)(F)F [AZD4320] + CN(C)CCCOc1ccc(-c2ccc3ncc4c(c3c2)n(C2CCOCC2)c(=O)n4C)cn1 [AZD0156] (first compound max 1 µM, 7x7, partner max 1 µM) | 0.254 | 0.793 | 0.546 | 0.229 | 0.01 | 1 | 1 | 0.497 | 0.116 | 0.275 | 0.141 | 0.19 | 0.801 | 0.0862 | 0.209 | 0.373 | 0.0433 | 0.208 | 0.274 | 0.259
CN(CCO)CC[C@H](CSc1ccccc1)Nc1ccc(S(=O)(=O)NC(=O)c2ccc(N3CCC([C@@H](O)c4ccccc4-c4ccc(Cl)cc4)CC3)cc2)cc1S(=O)(=O)C(F)(F)F [AZD4320] + C[C@@H]1COCCN1C2=NC(=NC(=C2)C3(CC3)[S@](=N)(=O)C)C4=C5C=CNC5=NC=C4 [AZD6738] (first compound max 1 µM, 7x7, partner max 10 µM) | 0.722 | 1 | 0.897 | 0.787 | 0.543 | 1 | 1 | 1 | 0.796 | 0.63 | 0.418 | 0.546 | 0.943 | 0.903 | 0.517 | 0.504 | 0.681 | 0.904 | 0.644 | 0.724
CN(CCO)CC[C@H](CSc1ccccc1)Nc1ccc(S(=O)(=O)NC(=O)c2ccc(N3CCC([C@@H](O)c4ccccc4-c4ccc(Cl)cc4)CC3)cc2)cc1S(=O)(=O)C(F)(F)F [AZD4320] + C[C@@H](Nc1cc(F)cc(F)c1)c1cc(C(=O)N(C)C)cc2c(=O)cc(N3CCOCC3)oc12 [AZD8186] (first compound max 1 µM, 7x7, partner max 3 µM) | 0.911 | 0.899 | 0.838 | 0.623 | 0.236 | 1 | 1 | 0.97 | 0.341 | 0.615 | 0.42 | 0.386 | 0.886 | 0.589 | 0.581 | 0.383 | 0.315 | 0.434 | 0.652 | 0.382
CN(CCO)CC[C@H](CSc1ccccc1)Nc1ccc(S(=O)(=O)NC(=O)c2ccc(N3CCC([C@@H](O)c4ccccc4-c4ccc(Cl)cc4)CC3)cc2)cc1S(=O)(=O)C(F)(F)F [AZD4320] + Cc1cc2ncnn2cc1Nc1ncc2c(n1)n(C1CCOCC1)c(=O)n2C [AZD7648] (first compound max 1 µM, 7x7, partner max 10 µM) | 0.37 | 0.841 | 0.594 | 0.171 | 0.0909 | 1 | 1 | 0.746 | 0.18 | 0.36 | 0.197 | 0.174 | 0.829 | 0.156 | 0.119 | 0.311 | 0.0433 | 0.127 | 0.295 | 0.238
CN(CCO)CC[C@H](CSc1ccccc1)Nc1ccc(S(=O)(=O)NC(=O)c2ccc(N3CCC([C@@H](O)c4ccccc4-c4ccc(Cl)cc4)CC3)cc2)cc1S(=O)(=O)C(F)(F)F [AZD4320] + Cn1cnc2c(F)c(Nc3ccc(Br)cc3Cl)c(C(=O)NOCCO)cc21 [Selumetinib] (first compound max 1 µM, 7x7, partner max 3 µM) | 0.694 | 0.896 | 0.721 | 0.575 | 0.198 | 1 | 1 | 0.99 | 0.885 | 0.646 | 0.697 | 0.459 | 0.893 | 0.556 | 0.347 | 0.479 | 0.304 | 0.472 | 0.441 | 0.516
COc1nnc2ccc(N3CCC(c4ccc(OCCN5CCN(C)C(=O)[C@H]5C)cc4)CC3)nn12 [AZD5153] + C=CCn1c(=O)c2cnc(Nc3ccc(N4CCN(C)CC4)cc3)nc2n1-c1cccc(C(C)(C)O)n1 [AZD1775] (first compound max 1 µM, partner max 1 µM) | 0.534 | 0.968 | 0.489 | 0.658 | 0.661 | 0.946 | 0.901 | 0.71 | 0.775 | 0.535 | 0.413 | 0.565 | 0.659 | 0.567 | 0.486 | 0.597 | 0.65 | 0.743 | 0.618 | 0.635
